Where two headings read alike, the source gives them in different places.
Tested on: Angiotensin II (AII) vasopressor response
Assay: AII Challenge: antagonism of angiotensin II vasopressor response in conscious spontaneously hypertensive rats
Format: in vivo, rat (male okamoto-Aoki SHR)
Conditions: for inhibition in vivo at 1 mg/kg / inhibition in vivo at 3 mg/kg: Rattus norvegicus, iv; for inhibition in vivo at 1 mg/kg / Average Change / inhibition in vivo at 3 mg/kg: SHR n=2; for Change: single SHR; for inhibition in vivo at 3 mg/kg: read-out: Inhibition
Source text: Conscious Male okamoto-Aoki SHR, 16-20 weeks old, weighing approximately 330 g are purchased from Charles River Labs (Wilmington, Mass.). Conscious rats are restrained in a supine position with elastic tape. The area at the base of the tail is locally anesthetized by subcutaneous infiltration with 2% procaine. […] The cannula is secured, heparinized (1,000 I.U./ml), sealed and the wound is closed. The animals are placed in plastic restraining cages in an upright position. The cannula is attached to a Statham P23Db pressure transducer, and pulsatile blood pressure is recorded to 10-15 minutes with a Gould Brush recorder. […] Angiotensin II (human sequence, Sigma Chem. Co., St. Louis, Mo.) of 0.05 and 0.1 ug/kg i.v. is injected into all rats (predosing response). Then a test compound, vehicle or a known angiotensin II antagonist is administered i.v., i.p. or orally to each set of rats. […] The vasopressor response of angiotensin II is measured for the increase in systolic blood pressure in mmHg.

[1] = 1 mg/kg I.V., AII 0.05 mcg/kg IV, 60 min post dose
[2] = 1 mg/kg I.V., AII 0.05 mcg/kg IV, 300 min post dose
[3] = 0.5 h, 3 mg/kg I.V., AII 0.05 mcg/kg IV, 30 min post dose
[4] = 0.5 h, 3 mg/kg I.V., AII 0.1 mcg/kg IV, 30 min post dose
[5] = 1 h, 3 mg/kg I.V., AII 0.05 mcg/kg IV, 60 min post dose
[6] = 1 h, 3 mg/kg I.V., AII 0.1 mcg/kg IV, 60 min post dose
[7] = 2 h, 3 mg/kg I.V., AII 0.05 mcg/kg IV, 120 min post dose
[8] = 2 h, 3 mg/kg I.V., AII 0.1 mcg/kg IV, 120 min post dose
[9] = 3 h, 3 mg/kg I.V., AII 0.05 mcg/kg IV, 180 min post dose
[10] = 3 h, 3 mg/kg I.V., AII 0.1 mcg/kg IV, 180 min post dose
[11] = 4 h, 3 mg/kg I.V., AII 0.05 mcg/kg IV, 240 min post dose
[12] = 4 h, 3 mg/kg I.V., AII 0.1 mcg/kg IV, 240 min post dose
[13] = 5 h, 3 mg/kg I.V., AII 0.05 mcg/kg IV, 300 min post dose
[14] = 5 h, 3 mg/kg I.V., AII 0.1 mcg/kg IV, 300 min post dose
[15] = […], 3 mg/kg I.V., AII 0.05 mcg/kg IV, 90 min post dose
[16] = […], 3 mg/kg I.V., AII 0.1 mcg/kg IV, 90 min post dose
[17] = 3 mg/kg I.V., AII 0.05 mcg/kg IV, 30 min post dose
[18] = 3 mg/kg I.V., AII 0.05 mcg/kg IV, 60 min post dose
[19] = 3 mg/kg I.V., AII 0.05 mcg/kg IV, 90 min post dose
[20] = 3 mg/kg I.V., AII 0.05 mcg/kg IV, 120 min post dose
[21] = 3 mg/kg I.V., AII 0.05 mcg/kg IV, 180 min post dose
[22] = 3 mg/kg I.V., AII 0.05 mcg/kg IV, 240 min post dose
[23] = 3 mg/kg I.V., AII 0.05 mcg/kg IV, 300 min post dose
[24] = 3 mg/kg I.V., AII 0.1 mcg/kg IV, 30 min post dose
[25] = 3 mg/kg I.V., AII 0.1 mcg/kg IV, 60 min post dose
[26] = 3 mg/kg I.V., AII 0.1 mcg/kg IV, 90 min post dose
[27] = 3 mg/kg I.V., AII 0.1 mcg/kg IV, 120 min post dose
[28] = 3 mg/kg I.V., AII 0.1 mcg/kg IV, 180 min post dose
[29] = 3 mg/kg I.V., AII 0.1 mcg/kg IV, 240 min post dose
[30] = 3 mg/kg I.V., AII 0.1 mcg/kg IV, 300 min post dose

Structure (SMILES): CCCCc1nc2ccc(C3C4CCCN3OC4)cc2c(=O)n1Cc1ccc(-c2ccccc2-c2nnn[nH]2)cc1 (stereo not shown) [Example 21]
- inhibition in vivo at 1 mg/kg (0.5 h, 1 mg/kg I.V., AII 0.05 mcg/kg IV, 30 min post dose): 53%
- inhibition in vivo at 1 mg/kg (0.5 h, 1 mg/kg I.V., AII 0.1 mcg/kg IV, 30 min post dose): 53%
- inhibition in vivo at 1 mg/kg (1 h, 1 mg/kg I.V., AII 0.05 mcg/kg IV, 60 min post dose): 68%
- inhibition in vivo at 1 mg/kg (1 h, 1 mg/kg I.V., AII 0.1 mcg/kg IV, 60 min post dose): 56%
- inhibition in vivo at 1 mg/kg (2 h, 1 mg/kg I.V., AII 0.05 mcg/kg IV, 120 min post dose): 63%
- inhibition in vivo at 1 mg/kg (2 h, 1 mg/kg I.V., AII 0.1 mcg/kg IV, 120 min post dose): 61%
- inhibition in vivo at 1 mg/kg (3 h, 1 mg/kg I.V., AII 0.05 mcg/kg IV, 180 min post dose): 63%
- inhibition in vivo at 1 mg/kg (3 h, 1 mg/kg I.V., AII 0.1 mcg/kg IV, 180 min post dose): 47%
- inhibition in vivo at 1 mg/kg (4 h, 1 mg/kg I.V., AII 0.05 mcg/kg IV, 240 min post dose): 42%
- inhibition in vivo at 1 mg/kg (4 h, 1 mg/kg I.V., AII 0.1 mcg/kg IV, 240 min post dose): 61%
- inhibition in vivo at 1 mg/kg (5 h, 1 mg/kg I.V., AII 0.05 mcg/kg IV, 300 min post dose): 37%
- inhibition in vivo at 1 mg/kg (5 h, 1 mg/kg I.V., AII 0.1 mcg/kg IV, 300 min post dose): 34%
- inhibition in vivo at 1 mg/kg ([…], 1 mg/kg I.V., AII 0.05 mcg/kg IV, 90 min post dose): 63%
- inhibition in vivo at 1 mg/kg ([…], 1 mg/kg I.V., AII 0.1 mcg/kg IV, 90 min post dose): 52%
- Average Change (1 mg/kg I.V., AII 0.05 mcg/kg IV, 30 min post dose): 22.5 mmHg
- Average Change [1]: 15 mmHg
- Average Change (1 mg/kg I.V., AII 0.05 mcg/kg IV, 90 min post dose): 17.5 mmHg
- Average Change (1 mg/kg I.V., AII 0.05 mcg/kg IV, 120 min post dose): 17.5 mmHg
- Average Change (1 mg/kg I.V., AII 0.05 mcg/kg IV, 180 min post dose): 17.5 mmHg
- Average Change (1 mg/kg I.V., AII 0.05 mcg/kg IV, 240 min post dose): 27.5 mmHg
- Average Change [2]: 30 mmHg
- Average Change (1 mg/kg I.V., AII 0.1 mcg/kg IV, 30 min post dose): 27 mmHg
- Average Change (1 mg/kg I.V., AII 0.1 mcg/kg IV, 60 min post dose): 25 mmHg
- Average Change (1 mg/kg I.V., AII 0.1 mcg/kg IV, 90 min post dose): 27.5 mmHg
- Average Change (1 mg/kg I.V., AII 0.1 mcg/kg IV, 120 min post dose): 22.5 mmHg
- Average Change (1 mg/kg I.V., AII 0.1 mcg/kg IV, 180 min post dose): 30 mmHg
- Average Change (1 mg/kg I.V., AII 0.1 mcg/kg IV, 240 min post dose): 22.5 mmHg
- Average Change (1 mg/kg I.V., AII 0.1 mcg/kg IV, 300 min post dose): 37.5 mmHg
- Change [1]: 15 mmHg
- Change [2]: 30 mmHg

Structure (SMILES): CCCCc1nc2ccc(C3CC4CCCCN3O4)cc2c(=O)n1Cc1ccc(-c2ccccc2-c2nnn[nH]2)cc1 (stereo not drawn) [Example 18, cis-2-Butyl-6-(9-oxa-1-azabicyclo[4.2.1]non-8-yl)-3-[[2'-(1H-tetrazol-5-yl)[1,1'-biphenyl]-4-yl-methyl-4(3H)-quinazolinone]
- inhibition in vivo at 3 mg/kg [3]: 68%
- inhibition in vivo at 3 mg/kg [4]: 75%
- inhibition in vivo at 3 mg/kg [5]: 53%
- inhibition in vivo at 3 mg/kg [6]: 60%
- inhibition in vivo at 3 mg/kg [7]: 5%
- inhibition in vivo at 3 mg/kg [8]: 0%
- inhibition in vivo at 3 mg/kg [9]: 58%
- inhibition in vivo at 3 mg/kg [10]: 50%
- inhibition in vivo at 3 mg/kg [11]: 63%
- inhibition in vivo at 3 mg/kg [12]: 10%
- inhibition in vivo at 3 mg/kg [13]: 11%
- inhibition in vivo at 3 mg/kg [14]: 45%
- inhibition in vivo at 3 mg/kg [15]: 47%
- inhibition in vivo at 3 mg/kg [16]: 45%
- Average Change [17]: 15 mmHg
- Average Change [18]: 22.5 mmHg
- Average Change [19]: 25 mmHg
- Average Change [20]: 45 mmHg
- Average Change [21]: 20 mmHg
- Average Change [22]: 17.5 mmHg
- Average Change [23]: 42.5 mmHg
- Average Change [24]: 12.5 mmHg
- Average Change [25]: 20 mmHg
- Average Change [26]: 27.5 mmHg
- Average Change [27]: 50 mmHg
- Average Change [28]: 25 mmHg
- Average Change [29]: 45 mmHg
- Average Change [30]: 27.5 mmHg

Structure (SMILES): CCCCc1nc2ccc([C@H]3[C@@H]4CCCCCC[C@@H]4ON3C)cc2c(=O)n1Cc1ccc(-c2ccccc2-c2nnn[nH]2)cc1 (relative stereo) [Example 52]
- inhibition in vivo at 3 mg/kg [3]: 89%
- inhibition in vivo at 3 mg/kg [4]: 76%
- inhibition in vivo at 3 mg/kg [5]: 80%
- inhibition in vivo at 3 mg/kg [6]: 59%
- inhibition in vivo at 3 mg/kg [7]: 63%
- inhibition in vivo at 3 mg/kg [8]: 59%
- inhibition in vivo at 3 mg/kg [9]: 20%
- inhibition in vivo at 3 mg/kg [10]: 12%
- inhibition in vivo at 3 mg/kg [11]: 27%
- inhibition in vivo at 3 mg/kg [12]: 47%
- inhibition in vivo at 3 mg/kg [13]: 33%
- inhibition in vivo at 3 mg/kg [14]: 15%
- inhibition in vivo at 3 mg/kg [15]: 24%
- inhibition in vivo at 3 mg/kg [16]: 53%
- Average Change [17]: 4 mmHg
- Average Change [18]: 7.5 mmHg
- Average Change [19]: 28.5 mmHg
- Average Change [20]: 14 mmHg
- Average Change [21]: 30 mmHg
- Average Change [22]: 27.5 mmHg
- Average Change [24]: 10 mmHg
- Average Change [25]: 17.5 mmHg
- Average Change [26]: 20 mmHg
- Average Change [27]: 17.5 mmHg
- Average Change [28]: 37.5 mmHg
- Average Change [29]: 22.5 mmHg
- Average Change [30]: 36 mmHg
- Change [21]: 30 mmHg
- Change [23]: 25 mmHg
- Change [24]: 10 mmHg

Reference: patent US5294611A, “Angiotensin II receptor blocking 2,3,6 substituted quinazolinones” (American Cyanamid Company, priority 1993, dated 1994)
